Measurements reported in patent publication US5369120A, “Pharmaceutical composition of 7-((substituted)amino-8-((substituted)carbonyl)-(methylamino)-1-oxasp iro(4,5)decanes and L-dopa” (Warner-Lambert Company, priority 1993, dated 1994).

System: rats rendered Parkinsonian by injection of reserpine
Experiment: locomotor activity and rigidity in reserpine-treated Parkinsonian rats
Type: in vivo, rat
Details: reserpine (4 mg/kg) rats; L-DOPA 80 mg/kg intraperitoneal, subthreshold dose

Structure (SMILES): N[C@@H](Cc1ccc(O)c(O)c1)C(=O)O [L-DOPA, 3-(3,4-dihydroxyphenyl)L-alanine]
- Locomotor scores: very low locomotor scores
